Test results: patent US6162810A, “Inadone and tetralone compounds for inhibiting cell proliferation” (The Regents of the University of California, priority 1998, dated 2000)

Assays:
proliferating cells = assay: Ability of further compounds to kill proliferating cells (average); format: cell-based; conditions: average TC50, proliferating cells; read-out: TC50 (the source's name)
Protocol: (§1) (B) Similarly, compounds of the invention were tested for their ability to kill CEM WT, CEM AB9228, MOLT-4, Jurkat, NALL-1, WI-L2, K562, and HL-60 cells.
(C) Proceeding as described above, further compounds were tested for their ability to kill proliferating cells.

[1] = system: human Jurkat T cell leukemia cells; assay: Cytotoxicity to human Jurkat T cell leukemia cells, 3 days culture; format: cell-based; conditions: 72 h, concentration necessary to kill 50% of the cells, three days, OD570/650, read-out: TC50 (the source's name)
Protocol: (A) The compounds prepared in Example 1 above were tested for biological activity by culturing human Jurkat T cell leukemia cells for three days at an initial density of 10^5 cells/ml in RPMI 1640+10% FBS (fetal bovine serum). Compounds of the invention were added, and the concentration necessary to kill 50% (TC50) of the cells was determined by OD570/650.

[2] = system: CEM WT, CEM AB9228, MOLT-4, Jurkat, NALL-1, WI-L2, K562, and HL-60 cells; assay: Cytotoxicity to various proliferating cell lines (average); format: cell-based, human; conditions: Homo sapiens, average TC50 over various proliferating cell lines; read-out: TC50 (the source's name)
Protocol: as §1

tubulin [3] = assay: Inhibition of [3H]vinblastine binding to tubulin; parameters: species or system bovine; conditions: single experiment
Protocol: The TB compounds of the invention (as represented by TB compound IK-178), are nearly as potent as the strong tubulin assembly inhibitor, combretastatin A-4 (CS-A4). In particular, the GI^50 inhibitory concentration of CS-A4 was 1.2±0.03 μM (n=4), while that of TB compound IK-178 was 1.7±0.1 μM (n=3).

tubulin [4] = assay: Inhibition of tubulin assembly; format: biochemical, bovine; conditions: 10 μM tubulin, 20 min incubation, 30° C.; read-out: GI50 inhibitory concentration (tubulin assembly)
Protocol: To evaluate the effects of the TB compounds of the invention on tubulin, bovine brain tubulin (2.2 mg/ml) was incubated in PEM80 (80 mM K-PIPES, 1 mM MgCl2, 1 mM EGTA) containing 10% glycerol and 2 mM GTP for 30 minutes at 37° C. in the presence or absence of 20 μg/ml nocodazole, 1 mM paclitaxel, or TB compound no. IK-178 at various concentrations. Tubulin polymer was resolved from monomer by sedimentation through a cushion of 60% glycerol in PEM80 at 70,000 rpm for 30 min at 37° C. in a Beckman TLA100 rotor. A fraction of the supernatant was removed for analysis, the cushion washed and then aspirated, and the pellet resuspended in SDS-PAGE sample buffer. Equal proportions of the supernatant and the pellet were then resolved by SDS-PAGE and tubulin visualized by staining with Coomassie blue.
The quantitative assessment of drug inhibition of tubulin polymerization and evaluation of inhibition of [^3 H]colchicine binding to tubulin were then performed. […] Samples were placed on ice and GTP (0.4 mM) was added. Reaction mixtures were transferred to 0° C. cuvettes in Gilford 250 spectrophotometers, baselines were establishes/d, and the temperature was jumped to 30° C. with electronic temperature controllers (about 60 sec). The IC^50 was defined as the drug concentration required to inhibit extent of assembly after a 20 min incubation. […]

KB-GRC-1 = assay: Growth inhibition of KB-GRC-1 (MDR); format: cell-based; conditions: Homo sapiens, MDR1, ±1 SD, n>5
KB-3-1 = assay: Growth inhibition of KB-3-1 (wild type); format: cell-based; conditions: Homo sapiens, ±1 SD, n>5
MES-SA/DX5 = assay: Growth inhibition of MES-SA/DX5 (MDR); format: cell-based; conditions: Homo sapiens, ±1 SD, n>5
MCF-7/ADR = assay: Growth inhibition of MCF-7/ADR (MDR); format: cell-based; conditions: Homo sapiens, NCI/ADR-RES, ±1 SD, n>5
MV522/Q6 = assay: Growth inhibition of MV522/Q6 (MDR); format: cell-based; conditions: Homo sapiens, ±1 SD, n>5
KB-GRC-1 and MV522/Q6 = assay: MTT proliferation assay of mdr1 overexpressing transfectomas; format: cell-based, human; conditions: 72 h
MDA3-1/gp170 = assay: Growth inhibition of MDA3-1/gp170 (MDR); format: cell-based; conditions: Homo sapiens, MDR1, ±1 SD, n>5
HL-60/ADR = assay: Growth inhibition of HL-60/ADR (MDR); format: cell-based; conditions: Homo sapiens, HL60/ADR, ±1 SD, n>5
MDA-MB-321 = assay: Growth inhibition of MDA-MB-321 (wild type); format: cell-based; conditions: Homo sapiens, ±1 SD, n>5
MV522 = assay: Growth inhibition of MV522 (wild type); format: cell-based; conditions: Homo sapiens, ±1 SD, n>5
MES-SA = assay: Growth inhibition of MES-SA (wild type); format: cell-based; conditions: Homo sapiens, ±1 SD, n>5
CEM = assay: Growth inhibition of CEM (wild type); format: cell-based; conditions: Homo sapiens, CCRF-CEM, ±1 SD, n>5
CEM/VLB100 = assay: Growth inhibition of CEM/VLB100 (MDR); format: cell-based; conditions: Homo sapiens, ±1 SD, n>5
HL-60 = assay: Growth inhibition of HL-60 (wild type); format: cell-based; conditions: Homo sapiens, ±1 SD, n>5
MCF-7 = assay: Growth inhibition of MCF-7 (wild type); format: cell-based; conditions: Homo sapiens, MCF7, ±1 SD, n>5
[5] = system: HL-60/ADR and MDF-7/ADR cells; assay: MTT assay, visual comparison of cells with and without MDR (FIGS. 1 and 2); format: cell-based, human; conditions: 3 days
caspase-3 in HL-60 cells = assay: Caspase-3 activation in HL-60 cells; format: cell-based, human; conditions: HL-60 cells
HL-60/ADR cells = assay: Apoptosis of HL-60/ADR cells (FACS); format: cell-based, human
Protocol: FACS analysis was performed to determine the influence of the TB compounds of the invention on growth cycling of cells (the analysis was performed on harvested cells, fixed in ice-cold 70% ethanol solution, then treated with 100 μg/ml of RNAse A and stained with 50 μg/ml propidium iodide for 1 h at 37° C. DNA content of the cells was analyzed by flow cytometry (Becton Dickinson FACScalibur), and the cell cycle distribution was calculated with the program ModFit LT 2.0 (Verity Software)).
First, the stage at which the TB compounds of the invention arrest growth of HL-60 and HL-60/ADR cells was determined by FACS analysis and caspase-3 activation as described above.

| Compound | CC50 (proliferating cells) | CC50 [1] | CC50 [2] | other results |
| --- | --- | --- | --- | --- |
| COc1cc2c(cc1OC)C(=O)/C(=C/c1cc(Cl)cc(Cl)c1)C2 [5,6-dimethoxy-2-(3',5'-dichlorophenylmethylene)-1-indanone] | 2000 nM | 750 nM | 750 nM |  |
| COc1cc(C=C2Cc3cc(OC)c(OC)cc3C2=NO)cc(OC)c1 [5,6-dimethoxy-2-(3',5'-dimethoxyphenylmethylene)-1-hydroximinioindane] |  | 800 nM | 800 nM |  |
| COc1cc(C=C2Cc3cc(OC)c(OC)cc3C2O)cc(OC)c1 (centres unmarked) [5,6-dimethoxy-2-(3',5'-dimethoxyphenylmethylene)-1-hydroxyindane] |  | 750 nM |  |  |
| COc1cc(C=C2Cc3cc(OC)c(OC)cc3C2=O)cc(OC)c1 [5,6-dimethoxy-2-(3',5'-dimethoxyphenylmethylene)-1-indanone] | 2000 nM | 750 nM | 750 nM |  |
| COc1cc2c(cc1OC)C(=O)C(=Cc1cc(C)cc(C)c1)C2 [5,6-dimethoxy-2-(3',5'-dimethylphenylmethylene)-1-indanone] | 81 nM | 75 nM | 75 nM |  |
| COc1cc2c(c(NC(=O)C(=O)O)c1OC)C(=O)C(=Cc1cc(C)c(O)c(C)c1)C2 [5,6-dimethoxy-7-oxalylamino-2-(3',5'-dimethyl-4'-hydroxyphenylmethylene)-1-indanone] | 150 nM |  | 4 nM |  |
| COc1cc2c(cc1OC)C(=O)C(=Cc1cccc(OC)c1OC)CC2 [6,7-dimethoxy-2-(2',3'-dimethoxyphenylmethylene)-1-tetralone] | > 50000 nM |  | > 50000 nM |  |
| COc1ccc(C=C2CCc3cc(OC)c(OC)cc3C2=O)cc1OC [6,7-dimethoxy-2-(3',4'-dimethoxyphenylmethylene)-1-tetralone] | > 50000 nM |  | > 50000 nM |  |
| COc1cc(/C=C2\CCc3cc(OC)c(OC)cc3C2=O)cc(OC)c1 [6,7-dimethoxy-2-(3',5'-dimethoxyphenylmethylene)-1-tetralone] |  | 5000 nM | 4000 nM |  |
| COc1cc2c(cc1OC)C(=O)C(=Cc1ccc(O)cc1)CC2 [6,7-dimethoxy-2-(4'-hydroxyphenylmethylene)-1-tetralone] | 30000 nM |  | 30000 nM |  |
| COc1ccc(C=C2CCc3cc(OC)c(OC)cc3C2=O)cc1 [6,7-dimethoxy-2-(4'-methoxyphenylmethylene)-1-tetralone] | > 50000 nM |  | > 50000 nM |  |
| COc1ccc(/C=C\c2cc(OC)c(OC)c(OC)c2)cc1O [CS-A4, combretastatin A-4, reference compound] |  |  |  | inhibition of [3H]vinblastine binding to tubulin (tubulin [3]): Neither agent inhibited; GI50 (tubulin [4]): 1200 ± 30 nM |
| CC(=O)O[C@H]1C(=O)[C@@]2(C)[C@H]([C@H](OC(=O)c3ccccc3)[C@]3(O)C[C@H](OC(=O)[C@H](O)[C@@H](NC(=O)c4ccccc4)c4ccccc4)C(C)=C1C3(C)C)[C@]1(OC(C)=O)CO[C@@H]1C[C@@H]2O [Paclitaxel, paclitaxel, reference compound] |  |  |  | GI50 (KB-GRC-1): > 1000 nM; GI50 (KB-3-1): 7 ± 3 nM; GI50 (MES-SA/DX5): > 1000 nM; GI50 (MCF-7/ADR): > 10000 nM; GI50 (MV522/Q6): 358 ± 8 nM; sensitivity of transfectomas overexpressing mdr1 (KB-GRC-1 and MV522/Q6): resistant; GI50 (MDA3-1/gp170): > 1000 nM; GI50 (HL-60/ADR): > 1000 nM; GI50 (MDA-MB-321): 50 ± 2 nM; GI50 (MV522): 15 ± 4 nM; GI50 (MES-SA): < 1 nM; GI50 (CEM): < 1 nM; GI50 (CEM/VLB100): 606 ± 20 nM; GI50 (HL-60): < 1 nM; GI50 (MCF-7): 50 ± 6 nM; sensitivity with acquisition of MDR [5]: sensitivity to paclitaxel was lost |
| COc1cc2c(c(OC)c1OC)-c1ccc(OC)c(=O)cc1[C@@H](NC(C)=O)CC2 [colchicine, reference compound] |  |  |  | caspase-3 activity (caspase-3 in HL-60 cells): did not activate caspase-3; apoptosis (HL-60/ADR cells): did not induce the apoptosis |
